{"source": "patent US5338874A", "about": "“Cis oxalato (trans 1-1,2-cyclohexanediamine) PT(II) having optically high purity” (Tanaka Kikinzoku Kogyo K.K., priority 1993, dated 1994)", "tested_on": "L1210", "experiment": "Tumor resistance against L1210 (i.p. transplanted, CDF1 mice), T/C", "assay_type": "in vivo", "design": "key to Toxic mark (T: large weight loss): P: Effective (Over 125%); Toxic (Large Weight Loss)", "details": "for Cured mice out of six / Toxic mark (T: large weight loss): i.p. on days 1, 5 and 9", "procedure": "The test was conducted by prescribing L1210 in a peritoneal cavity of six CDF1 mice/one group (the number of transplanted cells is […] per mouse and prescribing the medicine in the poritoncal cavity on a first day, a fifth day and a ninth day."}
{"smiles": "N[C@@H]1CCCC[C@H]1N.O=C([O-])C(=O)[O-].[Pt+2]", "note": "(relative stereo) [Comp. Ex., cis-oxalate(trans-1-1,2-cyclohexanediamine) Pt(II), reference compound]", "values": [{"measurement": "Cured mice out of six", "setting": "6.25 mg/kg", "result": "1/6"}, {"measurement": "Cured mice out of six", "setting": "12.5 mg/kg", "result": "4/6"}, {"measurement": "Toxic mark (T: large weight loss)", "setting": "25 mg/kg", "result": "T"}, {"measurement": "Tumor Resistance T/C (%)", "setting": "25 mg/kg, i.p. on days 1, 5 and 9, six CDF1 mice/group", "result": 81, "unit": "%"}]}
{"smiles": "N[C@@H]1CCCC[C@H]1N.O=C([O-])C(=O)[O-].[Pt+2]", "note": "(relative stereo) [Example 1, cis-oxalato (trans-1-1,2-cyclohexanediamine) Pt(II)]", "values": [{"measurement": "Cured mice out of six", "setting": "6.25 mg/kg", "result": "3/6"}, {"measurement": "Cured mice out of six", "setting": "6.25 mg/kg, listed as Example 2", "result": "3/6"}, {"measurement": "Cured mice out of six", "setting": "6.25 mg/kg, listed as Example 3", "result": "3/6"}, {"measurement": "Cured mice out of six", "setting": "12.5 mg/kg", "result": "2/6"}, {"measurement": "Cured mice out of six", "setting": "12.5 mg/kg, listed as Example 2", "result": "2/6"}, {"measurement": "Cured mice out of six", "setting": "12.5 mg/kg, listed as Example 3", "result": "2/6"}, {"measurement": "Toxic mark (T: large weight loss)", "setting": "25 mg/kg", "result": "T"}, {"measurement": "Activity against tumor leukemia L1210 (in words)", "setting": "high optical purity compound", "result": "active against a tumor \"leukomia L1210\""}]}
